The text below walks through data of BindingDB's records for patent US11149066 (Daiichi Sankyo, 2021).

Positions of bridges follow the written chain, without caps; N, C: chain ends. Residues, ends and D or L forms follow the SMILES beside them.

This test deals with Thrombospondin-1 (Homo sapiens, UniProt P07996). Nature of the test: TSP1 inhibitory activity. The method, then: As referred to herein, the TSP1 inhibitory activity refers to the activity to inhibit one or more effects of TSP1, including angiostatic effect. The TSP1 inhibitory activity is measured by a cell adhesion inhibition assay using human TSP1 and vascular endothelial cells as described hereinbelow in the Examples section. In this assay, when the 50% inhibitory concentration (IC5O) of a test substance is 200 nM or less, the test substance is determined to have TSP1 inhibitory activity.
Sequence of Thrombospondin-1 (P07996 whole entry): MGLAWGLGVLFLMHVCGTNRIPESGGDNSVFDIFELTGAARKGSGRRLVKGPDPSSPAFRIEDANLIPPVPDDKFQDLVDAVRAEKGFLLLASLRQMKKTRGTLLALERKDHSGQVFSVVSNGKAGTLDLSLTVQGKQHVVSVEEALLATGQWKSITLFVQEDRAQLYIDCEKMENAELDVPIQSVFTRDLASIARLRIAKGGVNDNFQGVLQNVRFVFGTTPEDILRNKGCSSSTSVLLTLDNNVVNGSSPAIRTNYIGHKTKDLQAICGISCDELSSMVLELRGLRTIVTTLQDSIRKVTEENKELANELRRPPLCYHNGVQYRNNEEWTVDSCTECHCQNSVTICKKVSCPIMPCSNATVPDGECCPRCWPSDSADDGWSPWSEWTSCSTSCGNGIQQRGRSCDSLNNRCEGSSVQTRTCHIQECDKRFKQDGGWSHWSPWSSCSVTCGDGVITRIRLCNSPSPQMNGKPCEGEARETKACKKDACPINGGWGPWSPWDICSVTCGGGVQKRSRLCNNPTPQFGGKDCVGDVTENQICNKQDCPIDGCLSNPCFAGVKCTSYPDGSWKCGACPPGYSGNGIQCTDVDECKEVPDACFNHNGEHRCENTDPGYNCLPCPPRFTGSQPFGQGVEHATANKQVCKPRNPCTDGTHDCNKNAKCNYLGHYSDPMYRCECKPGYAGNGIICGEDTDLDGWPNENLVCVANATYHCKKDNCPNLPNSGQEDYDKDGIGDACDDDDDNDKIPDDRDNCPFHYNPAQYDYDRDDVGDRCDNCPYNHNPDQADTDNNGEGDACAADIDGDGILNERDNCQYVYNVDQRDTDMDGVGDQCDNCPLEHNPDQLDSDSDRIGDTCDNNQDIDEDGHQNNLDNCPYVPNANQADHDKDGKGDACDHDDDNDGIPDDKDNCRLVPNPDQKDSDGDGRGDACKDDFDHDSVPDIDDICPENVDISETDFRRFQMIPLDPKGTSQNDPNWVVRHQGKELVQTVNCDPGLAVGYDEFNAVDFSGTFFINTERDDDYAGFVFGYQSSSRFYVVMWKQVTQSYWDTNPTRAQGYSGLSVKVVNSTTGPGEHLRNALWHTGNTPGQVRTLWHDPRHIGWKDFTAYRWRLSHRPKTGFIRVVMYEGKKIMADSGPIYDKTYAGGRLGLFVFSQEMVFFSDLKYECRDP

Regarding `CC[C@H](C)[C@@H]1NC(=O)[C@H](Cc2ccccc2)NC(=O)CSC[C@@H](C(N)=O)NC(=O)[C@H](C(C)C)NC(=O)[C@H](Cc2c[nH]c3ccccc23)NC(=O)[C@H](CCCNC(=N)N)NC(=O)[C@H](C(C)C)NC(=O)[C@H](Cc2c[nH]c3ccccc23)NC(=O)[C@H](CC(N)=O)NC(=O)[C@H](CCCCN)NC(=O)CNC(=O)[C@H](CO)NC1=O` [US11149066, Compound 10] ({CH2CO}-FISGKNWVRWVC-NH2; thioether N-12), the affinity, expressed as Kd, was 0.091 nM.
